Read-outs that look alike come from different tables or passages of the source.
How the values were obtained:
PDE4D [1] = assay: Occupancy of Compound B by PET with Compound A (Lassen plot); format: in vivo, cynomolgus non-human primates (Macaca fascicularis); details: Compound B 3 mg/kg infusion
Description: (§1) Two male non-naïve cynomolgus non-human primates (Macaca fascicularis) (“Subject 1” and “Subject 2”) were utilized in this study (7.0 and 5.5 kg). Subjects had previously undergone surgery for placement of arterial access ports for blood collection from the iliac artery. Each subject underwent a brain MR in a Philips 1.5T Intera scanner using a 3D T1 FFE sequence for subsequent registration with PET and application of a cynomolgus brain region of interest atlas for determination of regional time-activity curves. PET scans were conducted in each subject under baseline condition (i.e., Compound A, only) and 15 minutes after a 10 minute infusion of Compound B at 3 mg/kg (i.e. blocking condition). Compound B is a known PDE4D ligand, alternatively referred to as BPN14770.
(§2) Volume of distribution (VT) (mL/cm^3) of Compound A was estimated with the 2-tissue compartment (2TC) model and Logan graphical analysis (LGA, t*=30), for baseline and blocking scans, using 90 min of data. VT at baseline and blocking in ROIs were used to compute occupancy of Compound B via the occupancy (Lassen) plot. Time stability of VT estimated from 2TC and LGA models were assessed for both animals from 90 min or 120 minutes of data for baseline and blocking scans.

[2] = Plasma free fraction of Compound A (spiked -10 min plasma samples); format: in vitro ADME, cynomolgus non-human primates (Macaca fascicularis); details: cynomolgus monkey, read-out: fp (%) Plasma free fraction
Experimental: (§3) A dynamic 90 (Subject 1) or 120 (Subject 2) minute PET scan acquisition was initiated at the start of Compound A injection, administered over 3 minutes via an infusion pump targeting an injected activity of 5 mCi. Relative to time of Compound A injection, arterial blood samples were collected in K2EDTA at −10, 0.75, 1.5, 2.25, 3, 4, 5, 10, 15, 30, 45, 60, 90 and 120 min. For each sample, an aliquot (200 uL) was gamma counted for radioactivity concentration determination, then processed to plasma. For −10, 5, 15, 30, 60, 90, 120 min plasma samples, radio HPLC was performed for determination of parent fraction of Compound A, and −10 min samples spiked with Compound A were used for stability analysis and determination of plasma free fraction. Aliquots (100 uL) of plasma samples collected at −10, 5, 15, 30, 60, 90, 120 min were frozen for subsequent determination of drug concentration levels.

PDE4D [3] = assay: PET imaging of 11C-labeled Compound A in non-human primate brain (VT, uptake); format: in vivo, cynomolgus non-human primates (Macaca fascicularis); details: for VT (volume of distribution): 90 min
Experimental: The regional distribution and pharmacokinetics of ^11C-labeled compounds as described herein were evaluated on non-human primates via PET imaging.
as §1
PET scans were conducted with a Siemens Focus 220 microPET scanner. Subjects were anesthetized with ketamine 10 mg/kg IM approximately 45 minutes prior to Compound A injection. Atropine sulfate 0.05 mg/kg IM was administered approximately 35 minutes prior to Compound A injection. Subjects were intubated and maintained on isoflurane (2-2.5%) and oxygen (2 L/min). Indwelling catheters were placed in the saphenous veins for drug infusion, tracer injection and fluids (LRS 10 mL/kg/hr IV). Subjects were transported to the PET imaging bed, positioned, and monitored for body temperature, heart rate, expired CO2, respiration rate, and pulse O2.
as §3
At the conclusion of PET scan acquisition, an x-ray CT scan by an 8 slice NeuroLogica CereTom OTOscan of each Subject was collected of the head at 120 kVp, 4 mAs, slice thickness 0.625 mm and processed using filtered back projection. The CT scan was used for co-registration to PET for attenuation and scatter correction of the reconstructed PET scan. Listmode PET data were binned into 6×0.5 min, 3×1 min, 2×2 min and 22 ×5 min frames. Binned sinogram data were reconstructed by filtered backprojection.
Reconstructed PET images were analyzed using PMOD software. PET scans were transformed into MR template space via rigid PET-to-MR and affine+nonlinear MR-to-template registrations. Time-activity curves were generated from regions of interest (ROIs) defined on the MR template including the anterior cingulate, cerebellum, dorsolateral prefrontal cortex, entorhinal cortex, occipital cortex, striatum and thalamus. Peak uptake in the brain was between about 3.2% and 5.6% of the injected dose.
as §2

## NC(=O)Cc1ccc(Nc2cc(C(F)(F)F)nc(-c3cccc(Cl)c3)n2)cc1 [Compound B]
PDE4D [1]; Subject 1, 2TC
  Occupancy (%): 84%
PDE4D [1]; Subject 1, LGA
  Occupancy (%): 88%
PDE4D [1]; Subject 2, 2TC
  Occupancy (%): 82%
PDE4D [1]; Subject 2, LGA
  Occupancy (%): 73%

## [2H]C([2H])(c1cn[nH]c1)c1ccc(O[11CH3])c(-c2cccc([N+](=O)[O-])c2)n1 [Compound A]
[2]; Subject 1, baseline
  fraction unbound: 0.059
[2]; Subject 1, blocking (Compound B 3 mg/kg)
  fraction unbound: 0.059
[2]; Subject 2, baseline
  fraction unbound: 0.067
[2]; Subject 2, blocking (Compound B 3 mg/kg)
  fraction unbound: 0.047
PDE4D [3]; Anterior Cingulate, Subject 1, 2TC, baseline
  VT (volume of distribution): 15.8 mL/cm^3
PDE4D [3]; Anterior Cingulate, Subject 1, 2TC, blocking (Compound B 3 mg/kg)
  VT (volume of distribution): 8.8 mL/cm^3
PDE4D [3]; Anterior Cingulate, Subject 1, LGA, baseline
  VT (volume of distribution): 13.8 mL/cm^3
PDE4D [3]; Anterior Cingulate, Subject 1, LGA, blocking (Compound B 3 mg/kg)
  VT (volume of distribution): 8.9 mL/cm^3
PDE4D [3]; Anterior Cingulate, Subject 2, 2TC, baseline
  VT (volume of distribution): 13.7 mL/cm^3
PDE4D [3]; Anterior Cingulate, Subject 2, 2TC, blocking (Compound B 3 mg/kg)
  VT (volume of distribution): 10.6 mL/cm^3
PDE4D [3]; Anterior Cingulate, Subject 2, LGA, baseline
  VT (volume of distribution): 14.6 mL/cm^3
PDE4D [3]; Anterior Cingulate, Subject 2, LGA, blocking (Compound B 3 mg/kg)
  VT (volume of distribution): 10.4 mL/cm^3
PDE4D [3]; Cerebellum, Subject 1, 2TC, baseline
  VT (volume of distribution): 11.5 mL/cm^3
PDE4D [3]; Cerebellum, Subject 1, 2TC, blocking (Compound B 3 mg/kg)
  VT (volume of distribution): 7.6 mL/cm^3
PDE4D [3]; Cerebellum, Subject 1, LGA, baseline
  VT (volume of distribution): 10.2 mL/cm^3
PDE4D [3]; Cerebellum, Subject 1, LGA, blocking (Compound B 3 mg/kg)
  VT (volume of distribution): 7.7 mL/cm^3
PDE4D [3]; Cerebellum, Subject 2, 2TC, baseline
  VT (volume of distribution): 8.6 mL/cm^3
PDE4D [3]; Cerebellum, Subject 2, 2TC, blocking (Compound B 3 mg/kg)
  VT (volume of distribution): 9.6 mL/cm^3
PDE4D [3]; Cerebellum, Subject 2, LGA, baseline
  VT (volume of distribution): 9.2 mL/cm^3
PDE4D [3]; Cerebellum, Subject 2, LGA, blocking (Compound B 3 mg/kg)
  VT (volume of distribution): 9.7 mL/cm^3
PDE4D [3]; Dorsolateral Frontal Cortex, Subject 1, 2TC, baseline
  VT (volume of distribution): 26.2 mL/cm^3
PDE4D [3]; Dorsolateral Frontal Cortex, Subject 1, 2TC, blocking (Compound B 3 mg/kg)
  VT (volume of distribution): 10.2 mL/cm^3
PDE4D [3]; Dorsolateral Frontal Cortex, Subject 1, LGA, baseline
  VT (volume of distribution): 22.9 mL/cm^3
PDE4D [3]; Dorsolateral Frontal Cortex, Subject 1, LGA, blocking (Compound B 3 mg/kg)
  VT (volume of distribution): 10.1 mL/cm^3
PDE4D [3]; Dorsolateral Frontal Cortex, Subject 2, 2TC, baseline
  VT (volume of distribution): 15.2 mL/cm^3
PDE4D [3]; Dorsolateral Frontal Cortex, Subject 2, 2TC, blocking (Compound B 3 mg/kg)
  VT (volume of distribution): 12.3 mL/cm^3
PDE4D [3]; Dorsolateral Frontal Cortex, Subject 2, LGA, baseline
  VT (volume of distribution): 15.5 mL/cm^3
PDE4D [3]; Dorsolateral Frontal Cortex, Subject 2, LGA, blocking (Compound B 3 mg/kg)
  VT (volume of distribution): 10.6 mL/cm^3
PDE4D [3]; Enthorinal Cortex, Subject 1, 2TC, baseline
  VT (volume of distribution): 14.6 mL/cm^3
PDE4D [3]; Enthorinal Cortex, Subject 1, 2TC, blocking (Compound B 3 mg/kg)
  VT (volume of distribution): 8.1 mL/cm^3
PDE4D [3]; Enthorinal Cortex, Subject 1, LGA, baseline
  VT (volume of distribution): 11.7 mL/cm^3
PDE4D [3]; Enthorinal Cortex, Subject 1, LGA, blocking (Compound B 3 mg/kg)
  VT (volume of distribution): 7.4 mL/cm^3
PDE4D [3]; Enthorinal Cortex, Subject 2, 2TC, baseline
  VT (volume of distribution): 10.8 mL/cm^3
PDE4D [3]; Enthorinal Cortex, Subject 2, 2TC, blocking (Compound B 3 mg/kg)
  VT (volume of distribution): 10.1 mL/cm^3
PDE4D [3]; Enthorinal Cortex, Subject 2, LGA, baseline
  VT (volume of distribution): 10.5 mL/cm^3
PDE4D [3]; Enthorinal Cortex, Subject 2, LGA, blocking (Compound B 3 mg/kg)
  VT (volume of distribution): 7.8 mL/cm^3
PDE4D [3]; Hippocampus, Subject 1, 2TC, baseline
  VT (volume of distribution): 30.3 mL/cm^3
PDE4D [3]; Hippocampus, Subject 1, 2TC, blocking (Compound B 3 mg/kg)
  VT (volume of distribution): 7.4 mL/cm^3
PDE4D [3]; Hippocampus, Subject 1, LGA, baseline
  VT (volume of distribution): 19.4 mL/cm^3
PDE4D [3]; Hippocampus, Subject 1, LGA, blocking (Compound B 3 mg/kg)
  VT (volume of distribution): 7.5 mL/cm^3
PDE4D [3]; Hippocampus, Subject 2, 2TC, baseline
  VT (volume of distribution): 19.8 mL/cm^3
PDE4D [3]; Hippocampus, Subject 2, 2TC, blocking (Compound B 3 mg/kg)
  VT (volume of distribution): 11.1 mL/cm^3
PDE4D [3]; Hippocampus, Subject 2, LGA, baseline
  VT (volume of distribution): 17.4 mL/cm^3
PDE4D [3]; Hippocampus, Subject 2, LGA, blocking (Compound B 3 mg/kg)
  VT (volume of distribution): 11.0 mL/cm^3
PDE4D [3]; Occipital Cortex, Subject 1, 2TC, baseline
  VT (volume of distribution): 17.8 mL/cm^3
PDE4D [3]; Occipital Cortex, Subject 1, 2TC, blocking (Compound B 3 mg/kg)
  VT (volume of distribution): 8.4 mL/cm^3
PDE4D [3]; Occipital Cortex, Subject 1, LGA, baseline
  VT (volume of distribution): 15.1 mL/cm^3
PDE4D [3]; Occipital Cortex, Subject 1, LGA, blocking (Compound B 3 mg/kg)
  VT (volume of distribution): 8.0 mL/cm^3
PDE4D [3]; Occipital Cortex, Subject 2, 2TC, baseline
  VT (volume of distribution): 12.9 mL/cm^3
PDE4D [3]; Occipital Cortex, Subject 2, 2TC, blocking (Compound B 3 mg/kg)
  VT (volume of distribution): 10.6 mL/cm^3
PDE4D [3]; Occipital Cortex, Subject 2, LGA, baseline
  VT (volume of distribution): 13.1 mL/cm^3
PDE4D [3]; Occipital Cortex, Subject 2, LGA, blocking (Compound B 3 mg/kg)
  VT (volume of distribution): 10.0 mL/cm^3
PDE4D [3]; PET image analysis
  Brain entry: readily entered the brain
  Regional uptake: consistent with the known distribution of Compound B
PDE4D [3]; Striatum, Subject 1, 2TC, baseline
  VT (volume of distribution): 14.9 mL/cm^3
PDE4D [3]; Striatum, Subject 1, 2TC, blocking (Compound B 3 mg/kg)
  VT (volume of distribution): 9.0 mL/cm^3
PDE4D [3]; Striatum, Subject 1, LGA, baseline
  VT (volume of distribution): 13.9 mL/cm^3
PDE4D [3]; Striatum, Subject 1, LGA, blocking (Compound B 3 mg/kg)
  VT (volume of distribution): 9.2 mL/cm^3
PDE4D [3]; Striatum, Subject 2, 2TC, baseline
  VT (volume of distribution): 13.2 mL/cm^3
PDE4D [3]; Striatum, Subject 2, 2TC, blocking (Compound B 3 mg/kg)
  VT (volume of distribution): 11.5 mL/cm^3
PDE4D [3]; Striatum, Subject 2, LGA, baseline
  VT (volume of distribution): 13.4 mL/cm^3
PDE4D [3]; Striatum, Subject 2, LGA, blocking (Compound B 3 mg/kg)
  VT (volume of distribution): 11.2 mL/cm^3
PDE4D [3]; Thalamus, Subject 1, 2TC, baseline
  VT (volume of distribution): 17.6 mL/cm^3
PDE4D [3]; Thalamus, Subject 1, 2TC, blocking (Compound B 3 mg/kg)
  VT (volume of distribution): 8.8 mL/cm^3
PDE4D [3]; Thalamus, Subject 1, LGA, baseline
  VT (volume of distribution): 15.7 mL/cm^3
PDE4D [3]; Thalamus, Subject 1, LGA, blocking (Compound B 3 mg/kg)
  VT (volume of distribution): 8.9 mL/cm^3
PDE4D [3]; Thalamus, Subject 2, 2TC, baseline
  VT (volume of distribution): 11.6 mL/cm^3
PDE4D [3]; Thalamus, Subject 2, 2TC, blocking (Compound B 3 mg/kg)
  VT (volume of distribution): 9.9 mL/cm^3
PDE4D [3]; Thalamus, Subject 2, LGA, baseline
  VT (volume of distribution): 12.1 mL/cm^3
PDE4D [3]; Thalamus, Subject 2, LGA, blocking (Compound B 3 mg/kg)
  VT (volume of distribution): 9.8 mL/cm^3
PDE4D [3]; high dose of Compound B
  Change of Compound A in regions of high uptake on blockage of PDE4D: substantial reduction

Reference: US11104660B2, “PDE4D inhibitors” (TETRA DISCOVERY PARTNERS, INC., priority 2019, dated 2021)
